Active and inactive are the calls of the source.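 How the source made its calls: active means EC50 below 50 µM in the dose-response confirmation; inactive means the rest.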

The test system of this experiment is CSM14.1 thapsigargin-induced death rescue, ATP luminescence. The experiment is described as follows: rescue of cells from ER stress-induced death, primary screen, 384-well, CSM14.1, thapsigargin, ATP luminescence (AID 1222).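 Further: death triggered by thapsigargin at about 15 µM added after 2 h compound pretreatment; cell ATP read after overnight thapsigargin exposure of roughly 18 to 22 hours.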
Take `COc1ccc(C(=O)C(OC(=O)c2ccccc2)c2ccccc2)cc1` (stereo not given): the EC50 – broadly, the concentration needed to bring the measured effect to its halfway point – is 66.5 µM (inactive).

For the compound `O=S(=O)(c1ccc2c(c1)OCCO2)N1CCN(c2nc(-c3cccnc3)nc3ccccc23)CC1`, the EC50 was 76.4 µM (inactive).

In the case of `CCN(CC)c1ccc(/C=C(/C#N)c2nc3ccc(C)cc3[nH]2)c(OC(C)C)c1`, the EC50 was > 100 µM (inactive).

Regarding `CC12COC3(P(=O)(c4ccccc4)c4ccccc4)CC1CCC23CP(=O)(c1ccccc1)c1ccccc1` (stereo not given), the EC50 is 40.2 µM.

With `CCCCC(=O)NC(=S)NNC(=O)c1ccc(Cl)cc1Cl`, the EC50 is > 100 µM (inactive).

With `O=C(NC1CCCCC1)C(c1ccc2ncccc2c1)N(Cc1ccc2c(c1)OCO2)C(=O)c1ccc2c(c1)OCCO2` (stereo not given), the EC50 is 21.3 µM.

With `CC[C@@H](C)[C@@H](C(=O)N1CCN(C(=O)OC(C)(C)C)CC1)n1cc(CCCN=C(NC(=O)OC(C)(C)C)NC(=O)OC(C)(C)C)nn1`, the EC50 is 58.5 µM (inactive).

Turning to `CC1=NN(/C(=N\c2nnc(C)s2)Nc2ccccc2)[C@H](c2ccc(C)cc2)S1`, the EC50 is > 100 µM (inactive).

With `Cc1cc(CNC(=O)Cc2ccccc2)c2ccccc2n1`, the EC50 is > 100 µM (inactive).

Turning to `O=C(c1ccc(N2CCCC2=O)cc1)N1CCCCCC1`, the EC50 is > 100 µM (inactive).

Turning to `O=C(Nc1nonc1-c1ccc(Cl)cc1)c1ccccc1`, the EC50 is > 100 µM (inactive).

Regarding `C=C(C)CNC(=S)N/N=C/c1ccc([N+](=O)[O-])cc1`, the EC50 is > 100 µM (inactive).

As for `CC(C)C(=O)N1CCC(CN=Cc2c(O)n(C3CCCCC3)c(=O)n(C3CCCCC3)c2=O)CC1`, the EC50 was 70.3 µM (inactive).

As for `CCC(=O)Nc1nc2ccccc2n1Cc1ccc(Cl)cc1`, the EC50 was > 100 µM (inactive).

As for `Cc1ccc2cccc(N=Cc3c(C)[nH]n(-c4ccccc4)c3=O)c2n1`, the EC50 is > 100 µM (inactive).

For `C/C(=N\NC(=S)Nc1cccc(C)c1)c1ccco1`, the EC50 is > 100 µM (inactive).

With `C#CCOCCOCCOCCNc1nc(N2CCN(C(=O)[C@H]([C@@H](C)CC)n3cc(CCCN=C(N)N)nn3)CC2)nc(N2CCN(C(=O)[C@H](CCCCN)n3cc(CCCC)nn3)CC2)n1`, the EC50 was > 100 µM (inactive).

In the case of `O=C(CSc1nnnn1-c1ccccc1)c1cc2ccccc2oc1=O`, the EC50 was > 100 µM (inactive).

In the case of `COc1ccccc1Cn1c(=S)[nH]c2cc(C(=O)NCC3CCCO3)ccc2c1=O` (stereo not given), the EC50 is > 100 µM (inactive).

For `CCOc1ccccc1NC(=O)C(OC(=O)c1ccccc1NS(=O)(=O)c1cccs1)c1ccccc1` (stereo not given), the EC50 is > 100 µM (inactive).

Take `COc1ccc(CN(C(=O)c2ccc3c(c2)OCCO3)C(C(=O)NC2CCCCC2)c2ccc3ncccc3c2)cc1` (stereo not given): the EC50 was 31.4 µM.

For the compound `CCCCC(=O)NNC(=S)NC(=O)c1ccc(C)cc1`, the EC50 is > 100 µM (inactive).

Take `COCCn1c(C)cc(C(=O)COC(=O)CCN2C(=O)c3ccccc3C2=O)c1C`: the EC50 was > 100 µM (inactive).

Take `CCc1ccc(CC2S/C(=C(\C#N)C(C)=O)NC2=O)cc1` (stereo not given): the EC50 was > 100 µM (inactive).

`CCC(=O)NC(=S)NNC(=O)c1ccc(OC)cc1`: the EC50 is > 100 µM (inactive).

Take `C#CCOCCOCCOCCNc1nc(N2CCN(C(=O)[C@H](C)n3cc(CCCN=C(N)N)nn3)CC2)nc(N2CCN(C(=O)[C@H](C)n3cc(CCCN=C(N)N)nn3)CC2)n1`: the EC50 is > 100 µM (inactive).

In the case of `COc1ccc(C2=C/C(=C\c3cccc(OC(C)=O)c3)C(=O)O2)cc1`, the EC50 is > 100 µM (inactive).

Regarding `Cc1cccc(C(=O)O/N=C(/c2ccccc2)c2ccncc2)c1`, the EC50 was > 100 µM (inactive).

Regarding `Cc1ccc2c(C(=O)N3CCN(c4ccccc4)CC3)cc(-c3cccnc3)nc2c1C`, the EC50 is 81.3 µM (inactive).

As to `CC12C(=O)N(c3ccc(C(=O)N4CCOCC4)cc3)C(=O)C1C1c3ccccc3C2c2ccccc21` (stereo not given), the EC50 is > 100 µM (inactive).

`O=c1[nH]c(-c2ccccn2)nc2sc(-c3ccccc3)cc12`: the EC50 is > 100 µM (inactive).

`COc1ccc(C(=O)NNC(=S)NC(=O)C(C)(C)C)cc1`: the EC50 is > 100 µM (inactive).

Turning to `O=C(NC1CCCCC1)C(c1ccc2ncccc2c1)N(Cc1ccccc1)C(=O)c1ccc2c(c1)OCCO2` (stereo not given), the EC50 is 32.3 µM.

For the compound `Cc1c(Cl)c(C(F)F)nn1CC(=O)NC1C(=O)N2C(C(=O)O)=C(CSc3nnnn3C)CSC12` (stereo not given), the EC50 is > 100 µM (inactive).

Take `Cc1ccc(-c2nnn(CC(=O)N(Cc3cccs3)C(C(=O)NC3CCCC3)c3ccncc3)n2)cc1` (stereo not given): the EC50 was > 100 µM (inactive).

In the case of `CCCCCCn1c(O)c(/C=C2\C=NN=C2c2ccccc2)sc1=S`, the EC50 is > 100 µM (inactive).

With `COc1ccc(CN(C(=O)c2cccs2)C(C(=O)NC2CCCCC2)c2ccc3ncccc3c2)cc1` (stereo not given), the EC50 was 68.5 µM (inactive).

With `COc1ccc(-c2oc3ccccc3c(=O)c2OC(C)=O)cc1`, the EC50 is > 100 µM (inactive).

For `O=c1c2c(-c3ccccc3)csc2ncn1/N=C/c1cccc([N+](=O)[O-])c1O`, the EC50 was > 100 µM (inactive).

Consider `CNC(=O)c1c(NC(=O)c2nc3ccccc3s2)sc2c1CCC2`, for which the EC50 was > 100 µM (inactive).

As for `CN1CCC(O)(c2ccccc2)C(C(=O)c2ccccc2)C1` (stereo not given), the EC50 was > 100 µM (inactive).

For the compound `COc1ccc(NC2=Nc3ccccc3N3C2=Nc2c(c(C)nn2-c2ccc(C)cc2)C3c2cccnc2)cc1` (stereo not given), the EC50 was 92.6 µM (inactive).

For `CCN1CCc2c(OCC(=O)N3N=C(c4cccs4)CC3c3ccc(F)cc3)cccc2C1=O` (stereo not given), the EC50 is 42 µM.

For the compound `O=C(NC1CCCCC1)C(c1ccncc1)N(Cc1ccccc1)C(=O)c1ccc(-c2ccccc2)[nH]1` (stereo not given), the EC50 was 52.5 µM (inactive).

In the case of `CCO[C@@H]1OC(C(=O)N2CCN(Cc3ccc4c(c3)OCO4)CC2)=C[C@H](c2csc3ccccc23)[C@H]1CCCO`, the EC50 is 86.1 µM (inactive).

With `Cc1ccc(OCC(=O)NCCC2=CCCCC2)cc1`, the EC50 is > 100 µM (inactive).

In the case of `CCOc1cc(/C=N/NC(=O)COc2cccc(C)c2)ccc1OC(=O)c1cccs1`, the EC50 was > 100 µM (inactive).

In the case of `COC(=O)[C@@]1(Cc2ccc(F)cc2)[C@H]2c3cc(C(=O)N4CCCC4)n(CCc4c[nH]c5ccc(OC)cc45)c3C[C@H]2CN1C(=O)c1ccccc1`, the EC50 was 66.2 µM (inactive).

For the compound `Clc1ccc(OCCCN2CCCCC2)c(Br)c1`, the EC50 was > 100 µM (inactive).

For `O=C(Nc1nc(-c2cc(F)ccc2F)cs1)c1ccccn1`, the EC50 is > 100 µM (inactive).

As for `COc1ccc(CNC(=O)CCCn2nc(C)c([N+](=O)[O-])c2C)cc1OC`, the EC50 is > 100 µM (inactive).

In the case of `COc1ccc(/C=C/C(=O)N2CCCc3ccccc32)cc1`, the EC50 is > 100 µM (inactive).

Consider `COC(=O)c1ccc(NC(=O)C2CC(=O)N(c3ccc(C)cc3)C2)cc1` (stereo not given), for which the EC50 is > 100 µM (inactive).

As for `CCN1C(=O)/C(=C/c2ccc3c(c2)CCN3CCCCl)C(=O)NC1=S`, the EC50 is 44.7 µM.

Regarding `Cc1nc(N2CCN(C(=O)c3ccco3)CC2)c2c3c(sc2n1)CC(C)CC3` (stereo not given), the EC50 is 58.7 µM (inactive).

Take `O=C(NC1CCCCC1)C(c1ccc2ncccc2c1)N(Cc1ccc(F)cc1)C(=O)c1ccc2c(c1)OCCO2` (stereo not given): the EC50 is 28.8 µM.

On to `CC(C)CC(NC(=O)OC(C)(C)C)c1cn([C@@H](Cc2cc3ccccc3[nH]2)C(=O)N2CCN(C(=O)OC(C)(C)C)CC2)nn1` (stereo not given in full), for which the EC50 was 62.2 µM (inactive).

Regarding `CCCC1=[N+](CC(C)=O)CCn2c(C)ccc21`, the EC50 is > 100 µM (inactive).

As to `C#CCOCCOCCOCCNc1nc(N2CCN(C(=O)[C@H](CCCCN)n3cc(CCCC)nn3)CC2)nc(N2CCN(C(=O)[C@H](CCCCN)n3cc(CCCC)nn3)CC2)n1`, the EC50 is > 100 µM (inactive).

As for `CCOC(=O)C1=C(NC(=S)NC(=O)c2ccccc2)c2ccccc2CC1(C)C`, the EC50 is > 100 µM (inactive).

These data come from PubChem BioAssay AID1222 (Sanford-Burnham Center for Chemical Genomics, 2008).
